This assay deals with AP-1 induced transcriptional activity. Description: Cellular Transrepressional Assay: AP-1 luciferase reporter in PMA-activated A549 cells. Particulars: Homo sapiens; for Emax: A549, 7 h, maximum inhibition, Cellular Transrepression Assay, read-out: AP-1 Max % inh (Cellular Transrepression Assay); for EC50: A549, Cellular Transrepression Assay. It counts as cell-based. The protocol:
Cellular Transrepressional Assay
To measure the ability of test molecules to inhibit AP-1 induced transcriptional activity we utilized an A549 cell which was stably transfected with a plasmid containing 7× AP-1 DNA binding sites (pAP-1-Luc plasmid, Stratagene Co. La Jolla, Calif.) followed by the gene for luciferase. Cells were activated with 10 ng/ml of […] (PMA) plus or minus test molecules for 7 hours. After 7 hours a luciferase reagent was added to measure luciferase enzymatic activity in the cell. After a 10 minute incubation of luciferase reagent with cells, luminescence was measured in a TopCount luminescence counter. Repression of AP-1 activity was calculated as the percentage decrease in the signal induced by PMA alone. Test molecules were analyzed in the concentration range from 0.1 nM to 40 μM. EC50s were determined by using standard curve fitting methods such as Excel fit (Microsoft Co.).
(Reporter assays use an easily measured gene product as a stand-in for the process of interest.)

Our source for the Emax and EC50 values is patent US7968577B2 (Bristol-Myers Squibb Company, priority 2006, dated 2011).

One may read the EC50 as the midpoint of the concentration-response curve.

Regarding `CC(C)(C(=O)Nc1nccs1)C(c1ccc(N2CCOCC2)cc1)c1cccc(F)c1` (single isomer, unassigned) [Example 253, 3-(3-fluorophenyl)-2,2-dimethyl-3-(4-(4-morpholinyl)phenyl)-N-1,3-thiazol-2-ylpropanamide], the Emax is 27.9% and the EC50 was 37 nM.

On to `CC(C)(C(=O)Nc1nncs1)C(c1ccc(N2CCOCC2)cc1)c1cccc(F)c1` (single isomer, unassigned) [Example 255, 3-(3-fluroophenyl)-2,2-dimethyl-3-(4-(4-morpholinyl)phenyl)-N-1,3,4-thiadiazol-2-ylpropanamide], for which the Emax came to 43% and the EC50 was determined as 10.2 nM.

Turning to `CC(C)(C(=O)Nc1nccs1)[C@H](c1ccccc1)c1ccc(N2CCOCC2)cc1` (stereo in doubt) [Example 258, 2,2-dimethyl-3-(4-(4-morpholinyl)phenyl)-3-phenyl-N-1,3-thiazol-2-ylpropanamide], the Emax worked out at 42.7% and the EC50 was found to be 10.5 nM.

Take `COc1ccc([C@@H](c2ccccc2)C(C)(C)C(=O)Nc2nc(Cc3ccc(-c4ccncc4)cc3)cs2)cc1` (stereo in doubt) [Example 290, 2,2-dimethyl-3-(4-(methyloxy)phenyl)-3-phenyl-N-(4-((4-(4-pyridinyl)phenyl)methyl)-1,3-thiazol-2-yl)propanamide]: the Emax was 72.6% and the midpoint of the response, the EC50, lay at 9.65 nM.

`COc1ccc([C@H](c2ccccc2)C(C)(C)C(=O)Nc2nc(Cc3ccc(-c4ccncc4)cc3)cs2)cc1` (stereo in doubt) [Example 291, 2,2-dimethyl-3-(4-(methyloxy)phenyl)-3-phenyl-N-(4-((4-(4-pyridinyl)phenyl)methyl)-1,3-thiazol-2-yl)propanamide]: the Emax stood at 74.3% and the EC50 worked out at 10.3 nM.

On to `COc1cccc2sc(NC(=O)C(C)(C)C(c3ccccc3)c3ccccc3)nc12` [Example 46, 2,2-dimethyl-N-(4-(methyloxy)-1,3-benzothiazol-2-yl)-3,3-diphenylpropanamide], for which the Emax is 22.9%.

In the case of `CCOC(=O)/C(=N/OC)c1csc(NC(=O)C(C)(C)C(c2ccccc2)c2ccccc2)n1` [Example 49, ethyl (2E)-(2-((2,2-dimethyl-3,3-diphenylpropanoyl)amino)-1,3-thiazol-4-yl)((methyloxy)imino)ethanoate], the Emax is 20.1%.

For the compound `COc1ccc(C(c2ccc(OC)cc2)C(C)(C)C(=O)Nc2nc(C(C)(C)C)cs2)cc1` [Example 74, N-(4-(1,1-dimethylethyl)-1,3-thiazol-2-yl)-2,2-dimethyl-3,3-bis(4-(methyloxy)phenyl)propanamide], the Emax is 28.1%.

Regarding `COc1ccccc1C(c1ccccc1)C(C)(C)C(=O)Nc1nc(C)cs1` (stereo not drawn) [Example 81, 2,2-dimethyl-3-(2-(methyloxy)phenyl)-N-(4-methyl-1,3-thiazol-2-yl)-3-phenylpropanamide], the Emax is 23.1%.

On to `COc1ccccc1C(c1ccccc1)C(C)(C)C(=O)Nc1ncc(C)s1` (stereo not drawn) [Example 82, 2,2-dimethyl-3-(2-(methyloxy)phenyl)-N-(5-methyl-1,3-thiazol-2-yl)-3-phenylpropanamide], for which the Emax was determined as 25.9%.

Consider `COc1ccccc1C(c1ccccc1)C(C)(C)C(=O)Nc1nc(-c2ccccc2)cs1` (stereo not drawn) [Example 84, 2,2-dimethyl-3-(2-(methyloxy)phenyl)-3-phenyl-N-(4-phenyl-1,3-thiazol-2-yl)propanamide], for which the Emax amounted to 30.8%.

Regarding `COc1cccc(C(c2ccccc2)C(C)(C)C(=O)Nc2nccs2)c1` (stereo not drawn) [Example 91, 2,2-dimethyl-3-(3-(methyloxy)phenyl)-3-phenyl-N-1,3-thiazol-2-ylpropanamide], the Emax was 23.2%.

For the compound `COc1cccc(C(c2ccccc2)C(C)(C)C(=O)Nc2ncc(C)s2)c1` (stereo not drawn) [Example 93, 2,2-dimethyl-3-(3-(methyloxy)phenyl)-N-(5-methyl-1,3-thiazol-2-yl)-3-phenylpropanamide], the Emax was 28.1%.

For `COc1cccc(C(c2ccccc2)C(C)(C)C(=O)Nc2nc(C)c(C)s2)c1` (stereo not drawn) [Example 94, N-(4,5-dimethyl-1,3-thiazol-2-yl)-2,2-dimethyl-3-(3-(methyloxy)phenyl)-3-phenylpropanamide], the Emax stood at 35.4%.

`COc1cccc(C(c2ccccc2)C(C)(C)C(=O)Nc2nc(-c3ccccc3)cs2)c1` (stereo not drawn) [Example 95, 2,2-dimethyl-3-(3-(methyloxy)phenyl)-3-phenyl-N-(4-phenyl-1,3-thiaozl-2-yl)propanamide]: the Emax stood at 36.2%.

Take `COc1cccc(C(c2ccccc2)C(C)(C)C(=O)Nc2nc(C(C)(C)C)cs2)c1` (stereo not drawn) [Example 96, N-(4-(1,1-dimethylethyl)-1,3-thiazol-2-yl)-2,2-dimethyl-3-(3-(methyloxy)phenyl)-3-phenylpropanamide]: the Emax came to 37.1%.

Regarding `COc1cccc(C(c2ccccc2)C(C)(C)C(=O)Nc2nc(CCc3ccccc3)cs2)c1` (stereo not drawn) [Example 97, 2,2-dimethyl-3-(3-(methyloxy)phenyl)-3-phenyl-N-(4-(2-phenylethyl)-,3-thiaozl-2-yl)propanamide], the Emax was determined as 26.5%.

Take `CCOC(=O)c1sc(NC(=O)C(C)(C)C(c2ccccc2)c2cccc(OC)c2)nc1C` (stereo not drawn) [Example 100, ethyl 2-((2,2-dimethyl-3-(3-(methyloxy)phenyl)-3-phenylpropanoyl)amino)-4-methyl-1,3-thiazole-5-carboxylate]: the Emax was found to be 30%.

Regarding `COc1cccc(C(c2ccccc2)C(C)(C)C(=O)Nc2nc3ccccc3s2)c1` (stereo not drawn) [Example 101, N-1,3-benzothiazol-2-yl-2,2-dimethyl-3-(3-(methyloxy)phenyl)-3-phenylpropanamide], the Emax came to 26.9%.

For `COc1ccc(C(c2ccccc2)C(C)(C)C(=O)Nc2nc(C)cs2)cc1` (stereo not drawn) [Example 104, 2,2-dimethyl-3-(4-(methyloxy)phenyl)-N-(4-methyl-1,3-thiazol-2-yl)-3-phenylpropanamide], the Emax came out at 27.3%.

Take `COc1ccc(C(c2ccccc2)C(C)(C)C(=O)Nc2ncc(C)s2)cc1` (stereo not drawn) [Example 105, 2,2-dimethyl-3-(4-(methyloxy)phenyl)-N-(5-methyl-1,3-thiazol-2-yl)-3-phenylpropanamide]: the Emax was found to be 22.1%.

As to `COc1ccc(C(c2ccccc2)C(C)(C)C(=O)Nc2nc(C)c(C)s2)cc1` (stereo not drawn) [Example 106, N-(4,5-dimethyl-1,3-thiazol-2-yl)-2,2-dimethyl-3-(4-(methyloxy)phenyl)-3-phenylpropanamide], the Emax amounted to 35.9%.

Regarding `COc1ccc(C(c2ccccc2)C(C)(C)C(=O)Nc2nc(-c3ccccc3)cs2)cc1` (stereo not drawn) [Example 107, 2,2-dimethyl-3-(4-(methyloxy)phenyl)-3-phenyl-N-(4-phenyl-1,3-thiaozl-2-yl)propanamide], the Emax came out at 38.4%.

For `COc1ccc(C(c2ccccc2)C(C)(C)C(=O)Nc2nc(CCc3ccccc3)cs2)cc1` (stereo not drawn) [Example 109, 2,2-dimethyl-3-(4-(methyloxy)phenyl)-3-phenyl-N-(4-(2-phenylethyl)-1,3-thiazol-2-yl)propanamide], the Emax was 22.6%.

`CCOC(=O)c1sc(NC(=O)C(C)(C)C(c2ccccc2)c2ccc(OC)cc2)nc1C` (stereo not drawn) [Example 112, ethyl 2-((2,2-dimethyl-3-(4-(methyloxy)phenyl)-3-phenylpropanoyl)amino)-4-methyl-1,3-thiazole-5-carboxylate]: the Emax was 20.9%.
